Biological target: T1, amyloid β protein (QD-Aβ / Aβ42) deposited on and/or in cerebral organoid (Homo sapiens, UniProt P05067)
T1 construct: To a reagent bottle of Aβ1-42 0.5 mg (manufactured by Peptide Institute, Inc.: Cat No. 4394v); purchased Peptide Institute, Inc. 4394v; host or cells: synthetic peptide, added to the culture of a cerebral organoid derived from human iPS cells (HPS08554)
Assay: Aβ deposition suppression on cerebral organoid with quantum dot-modified amyloid β (QD-Aβ), fluorescence image analysis
Format: cell-based
Conditions: rosmarinic acid 50 μM; QD-Aβ 30 nM, artificial Aβ 10 μM; human iPS cell-derived cerebral organoid; 24 hours at 37° C.
Description: An end of a tip for 1000 μL was cut with sterilized scissors, and the organoid grown to a diameter of 1 mm or larger prepared in Example 1 was sucked so as not to collapse, and transferred to a U-bottom 96-well plate. […]
The next day, the culture supernatant was completely removed so as not to suck the organoid, and after 150 μL of a fresh NbM medium was added, the cultured organoid was observed and photographed using a fluorescence microscope.
Using a fluorescent microscope (BZ-X800 manufactured by Keyence Corporation), the cultured organoid in Example 2 was photographed in a bright field at high resolution with an exposure time of 1/500 s to 1/2000 s, or at high sensitivity with an exposure time of 1/2000 s to 1/5000 s, using a Z stack with 20 μm intervals. […] Thereafter, in order to observe the deposition of quantum dot-modified amyloid β on the cultured organoid, red fluorescence was observed using a TRITC lens at high sensitivity with an exposure time of ¼ s to 1/8.5 s, and images were obtained according to the above procedure.
Each of the images obtained above was analyzed as follows. Specifically, the hybrid cell count function was used to read the organoid images used in the various tests, select the bright field, and then set the extraction selection to OFF. The threshold of the read bright-field images was set to 200, and the organoid area was calculated (organoid surface area). […]

T1 sequence (P05067 672-713): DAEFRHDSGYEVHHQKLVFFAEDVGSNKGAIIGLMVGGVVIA

Structure (SMILES): O=C(/C=C/c1ccc(O)c(O)c1)O[C@H](Cc1ccc(O)c(O)c1)C(=O)O [rosmarinic acid, Rosmarinic acid]
- Aβ deposition suppression rate: less than 5.0%
